Test results from patent US20250108038A1 (priority 2023, published 2025).
Where “and” joins values, the source holds several entries; their conditions need not be identical. Identical values can stand only once. Entries after “also recorded” stand apart in the source; their conditions may differ. Like-named read-outs stand apart in the source and are kept apart here.

How the values were obtained:
[1] = Description: Twelve male Wistar Han rats were divided into 4 groups, n=3 per group.
Dose solutions were prepared freshly on the day of study prior to dosing.
The animals were weighed immediately prior to dosing and the dose volume was calculated individually based the obtained body weight and the nominal dose volume. […] The test articles were administered either orally by gavage, or intraperitoneally by injection. The nominal dose volume was 10 mL/kg for both compounds and both routes.
Cage side observation was performed before and after dosing as well as at each scheduled sample collection. The observation included appearance, posture, behavior, morbidity and mortality. Abnormal findings, if any, were recorded in the study notebook and communicated with study director, veterinarian, and Supernus if necessary.
Approximately 100 μL blood was collected at each scheduled time point from jugular veins. The actual sample collection time was within 1 min. of the nominal time for collections prior to or at 1 hour, and within 5% of the nominal time for collections post 1 hour.
The blood samples were placed in pre-labeled micro-centrifuge tubes containing K2EDTA as anticoagulant and kept on ice, and then were processed to plasma within 30 minutes of collection by centrifugation at 4° C., 3000 g for 5 minutes, and then stored at −70±10° C. until analysis by LC-MS/MS.
Plasma concentrations below the LLOQ prior to Tmax were set to zero, and those after Tmax were excluded from PK calculation. The nominal dose and the nominal sample collection time were used for the calculation. The values of plasma concentrations and PK parameters are reported to three significant figures. The average values of each treatment group are presented as mean±SD.

BCRP = target: T1, BCRP (Homo sapiens, UniProt Q9UNQ0); test: Vesicular transport inhibition assay, BCRP (estrone-3-sulfate)
T1 sequence (Q9UNQ0 1-655): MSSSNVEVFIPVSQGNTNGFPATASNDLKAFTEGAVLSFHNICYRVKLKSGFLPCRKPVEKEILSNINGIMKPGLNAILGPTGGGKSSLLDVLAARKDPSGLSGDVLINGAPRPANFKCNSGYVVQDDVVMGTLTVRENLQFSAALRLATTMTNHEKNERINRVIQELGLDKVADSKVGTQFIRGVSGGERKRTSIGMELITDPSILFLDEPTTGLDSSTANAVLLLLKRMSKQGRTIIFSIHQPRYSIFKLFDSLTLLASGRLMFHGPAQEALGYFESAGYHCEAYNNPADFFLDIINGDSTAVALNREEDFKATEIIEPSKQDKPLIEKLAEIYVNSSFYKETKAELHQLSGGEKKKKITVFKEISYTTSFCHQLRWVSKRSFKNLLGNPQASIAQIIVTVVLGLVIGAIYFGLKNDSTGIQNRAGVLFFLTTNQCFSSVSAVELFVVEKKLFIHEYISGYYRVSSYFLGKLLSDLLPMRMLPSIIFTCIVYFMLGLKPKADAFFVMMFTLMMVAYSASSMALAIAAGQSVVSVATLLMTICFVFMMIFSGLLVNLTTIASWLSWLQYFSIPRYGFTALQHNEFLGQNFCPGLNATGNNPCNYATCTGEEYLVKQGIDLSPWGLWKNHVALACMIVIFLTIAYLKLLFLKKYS
Description: Vesicular transport assays were performed with inside-out membrane vesicles prepared from cells overexpressing human ABC (efflux) transporters. The transporters were expressed by SOLVO Biotechnology in mammalian (HEK293) cells. The mammalian cells were stably transfected with the ABC transporter of interest. The assays were conducted according to the actual SOLVO VT assay protocols (PR-ASY-VT-General Protocol for Vesicular Transport Inhibition Assays).
The membrane vesicle suspension was mixed with the ice-cold transport buffer, then the probe substrate solution was added. […] (for BCRP and MDR1). […] Reactions were quenched by the addition of 200 μL of ice-cold washing buffer and immediate filtration via glass fiber filters mounted to a 96-well plate (filter plate). The filters were washed (5×200 μL of ice-cold washing buffer), dried and the amount of substrate inside the filtered vesicles was determined by liquid scintillation counting.
Incubation with AMP provided background activity values for all data points.

[2] = single IP Compound I-4 3.708 mg/kg, male Wistar Han rats, individual animals
[3] = single IP Compound I-4 3.708 mg/kg, male Wistar Han rats, mean
[4] = single PO Compound I-4 3.708 mg/kg, male Wistar Han rats, individual animals
[5] = single PO Compound I-4 3.708 mg/kg, male Wistar Han rats, mean

Structure (SMILES): COCCOC1(c2ccc(Cl)cc2)c2ccccc2C2=NCCN21 (stereo not shown) [Compound I-4]
- plasma concentration of Compound I-4 ([1]; 0.500 h, single IP Compound I-4 3.708 mg/kg, male Wistar Han rats, individual animals): 0.0903 µg/mL and 0.0484 µg/mL and 0.115 µg/mL
- plasma concentration of Compound I-4 ([1]; 0.500 h, single IP Compound I-4 3.708 mg/kg, male Wistar Han rats, mean): 0.0846 µg/mL
- plasma concentration of Compound I-4 ([1]; 0.500 h, single PO Compound I-4 3.708 mg/kg, male Wistar Han rats, mean): 0.00901 µg/mL
- plasma concentration of Compound I-4 ([1]; 2.00 h, single IP Compound I-4 3.708 mg/kg, male Wistar Han rats, individual animals): 0.0967 µg/mL and 0.0857 µg/mL and 0.119 µg/mL
- plasma concentration of Compound I-4 ([1]; 2.00 h, single IP Compound I-4 3.708 mg/kg, male Wistar Han rats, mean): 0.1 µg/mL
- plasma concentration of Compound I-4 ([1]; 2.00 h, single PO Compound I-4 3.708 mg/kg, male Wistar Han rats, mean): 0.00606 µg/mL
- plasma concentration of Compound I-4 ([1]; 4.00 h, single IP Compound I-4 3.708 mg/kg, male Wistar Han rats, individual animals): 0.0546 µg/mL and 0.0986 µg/mL and 0.0611 µg/mL
- plasma concentration of Compound I-4 ([1]; 4.00 h, single IP Compound I-4 3.708 mg/kg, male Wistar Han rats, mean): 0.0714 µg/mL
- plasma concentration of Compound I-4 ([1]; 4.00 h, single PO Compound I-4 3.708 mg/kg, male Wistar Han rats, mean): 0.00275 µg/mL
- plasma concentration of Compound I-4 ([1]; 8.00 h, single IP Compound I-4 3.708 mg/kg, male Wistar Han rats, mean): 0.0317 µg/mL
- plasma concentration of Compound I-4 ([1]; 8.00 h, single PO Compound I-4 3.708 mg/kg, male Wistar Han rats, individual animals): 0.0014 µg/mL and 0.00111 µg/mL and 0.00153 µg/mL
- plasma concentration of Compound I-4 ([1]; 8.00 h, single PO Compound I-4 3.708 mg/kg, male Wistar Han rats, mean): 0.00135 µg/mL
- plasma concentration of Compound I-4 ([1]; 24.0 h, single IP Compound I-4 3.708 mg/kg, male Wistar Han rats, individual animals): BQL
- plasma concentration of Compound I-4 ([1]; 24.0 h, single PO Compound I-4 3.708 mg/kg, male Wistar Han rats, individual animals): BQL
- plasma concentration of Compound I-4 ([1]; […] h, single IP Compound I-4 3.708 mg/kg, male Wistar Han rats, mean): 0.0955 µg/mL
- plasma concentration of Compound I-4 ([1]; […] h, single PO Compound I-4 3.708 mg/kg, male Wistar Han rats, mean): 0.00698 µg/mL
- Clinical observation (tolerability) ([1]; male Wistar Han rats, PO and IP, administered dosages): well tolerated
- T1/2 of the administered compound ([1]; rat, in vivo, ip): 2.51 h
- AUC0-inf of Compound I-4 [1, 2]: 0.567 µg·h/mL and 0.597 µg·h/mL
- AUC0-last of Compound I-4 [1, 2]: 0.473 µg·h/mL and 0.599 µg·h/mL and 0.546 µg·h/mL
- Cmax of Compound I-4 [1, 2]: 0.12 µg/mL and 0.0986 µg/mL and 0.14 µg/mL
- MRT0-inf of Compound I-4 [1, 2]: 4.58 h and 3.48 h
- MRT0-last of Compound I-4 [1, 2]: 3.06 h and 4.10 h and 2.77 h
- T1/2 of Compound I-4 [1, 2]: 2.90 h and 2.12 h
- Tlast of Compound I-4 [1, 2]: 8.00 h
- AUC0-inf of Compound I-4 [1, 3]: 0.582 µg·h/mL
- AUC0-last of Compound I-4 [1, 3]: 0.539 µg·h/mL
- Cmax of Compound I-4 [1, 3]: 0.12 µg/mL
- MRT0-inf of Compound I-4 [1, 3]: 4.03 h
- MRT0-last of Compound I-4 [1, 3]: 3.31 h
- T1/2 of Compound I-4 [1, 3]: 2.51 h
- Tlast of Compound I-4 [1, 3]: 8.00 h
- Tmax of Compound I-4 [1, 3]: 1.50 h
- AUC0-inf of Compound I-4 [1, 4]: 0.0564 µg·h/mL
- MRT0-inf of Compound I-4 [1, 4]: 2.61 h
- MRT0-last of Compound I-4 [1, 4]: 3.86 h and 2.20 h and 4.46 h
- T1/2 of Compound I-4 [1, 4]: 1.74 h
- Tlast of Compound I-4 [1, 4]: 8.00 h
- AUC0-last of Compound I-4 [1, 5]: 0.0252 µg·h/mL
- Cmax of Compound I-4 [1, 5]: 0.00918 µg/mL
- MRT0-last of Compound I-4 [1, 5]: 3.51 h
- Tlast of Compound I-4 [1, 5]: 8.00 h
- Tmax of Compound I-4 [1, 5]: 1.67 h

Structure (SMILES): OC1(c2ccc(Cl)cc2)c2ccccc2C2=NCCN21 (stereo not shown) [Compound A, 5-(4-chlorophenyl)-2,3-dihydroimidazo[1,2-b]isoindol-5-ol, reference compound]
- Relative ATP-dependent transport (BCRP; 5.00 μM nominal): 100.28 ± 5.84 % of control
- Relative ATP-dependent transport (BCRP; 50.00 μM nominal): 97.83 ± 3.82 % of control
- maximum inhibition of BCRP-mediated E3S accumulation (BCRP; 2-concentration assay, up to 100 μM (Compound A up to 50 μM)): did not inhibit; also recorded: not an in vitro inhibitor
- Maximum % inhibition (BCRP; BCRP, inside-out membrane vesicles, E3S (1 μM), NIO: No inhibition observed): NIO
- inhibition at 5 μM (BCRP; human): 0%
- inhibition at 50 μM (BCRP; human): 2%
